{
  "source": "patent US7655392B2",
  "about": "“Quenching methods for red blood cell inactivation process” (priority 2004, dated 2010)",
  "test_system": "red blood cells",
  "experiment": "Gel card agglutination with rabbit anti-acridine sera",
  "format": "cell-based",
  "experimental": "The reduction in modification of red blood cells in the methods of the present invention can be evaluated by several assays. In one assay, rabbit polyclonal sera that is reactive with acridine is produced by injecting New Zealand White rabbits with an acridine compound conjugated to KLH.\nThis is conjugated to KLH by adding 10 μL of the compound (10 mM in de-ionized water) to 990 μL of a buffered solution of KLH (10 mg/mL in 50 mM Phosphate, 150 mM NaCl, PBS pH=7.2 with proprietary stabilizer, Pierce Cat # 77600) and incubating at room temperature for over 20 hours. Following this incubaton, the conjugated KLH is isolated from the unreacted S-197 and S-197 by-products by passing through a desalting column (e.g. D-salt columns, Pierce) and eluting in PBS buffer. The colored fractions of the solutions are then combined and the KLH conjugates are characterized by the ratio of absorbance at 210 and 410 nm. The acridine-KLH conjugate solutions are mixed with Complete Freund's Adjuvant for intramuscular injection into the rabbits at multiple sites to immunize the rabbits. […] The resulting solution can be assayed for agglutination by passing through a Buffer Gel Card (Micro Typing Systems, Pompano Beach, Fla.). The gel cards are designed to allow non-agglutinated red blood cells to pass through, while cells agglutinated by reaction with the rabbit sera and cross reacting with the anti-rabbit antibody will remain at the top of the gel. The cards are scored as 0, 1+, 2+, 3+, or 4+, where 0 indicates all cells are intact and are at the bottom of the gel, while 4+ indicates complete agglutination, with all cells at the top of the gel.\nIn these, the appropriate amount of 600 mM stock was added, mixed with an appropriate volume of 8% dextrose to provide the same volume addition to each RBC sample where in one study, with varied glutathione concentrations, the pH was measured after adding glutathione and after adding PIC-1. […] Similar samples were also assessed for the inactivation of S. epidermidis. […] For gel card analysis, after incubation, the RBC were washed in BBS and were diluted in BBS to a final hematocrit of 4%. A 25 μL aliquot of each was mixed with 15 μL of rabbit polyclonal anti-acridine sera diluted either 1:4 or 1:100 in BBS and the mixture was incubated at 37° C. for 30 minutes. The cells were subsequently washed with 1.5 mL BBS. […]\nHeterophile antibodies are naturally occurring antibodies that recognize RBC from another species in a non-specific fashion. […] All samples were mixed with quencher first, then PIC-1 at 0.2 mM.\nThe standard condition was included, i.e. 0.2 mM PIC-1 and 2 mM acidic glutathione added together.",
  "note": "Marks after values point to notes of the source that are not given here.",
  "data": [
    {"compound": "O=C(CCNc1c2ccccc2nc2ccccc12)OCCN(CCCl)CCCl", "note": "[PIC-1]", "values": [
      {"measurement": "Gel card score", "setting": "Table 11A samples, rabbit sera 1:4, all samples", "value": "4+"},
      {"measurement": "Gel card score", "setting": "Table 11B: 2 mM GSH, 1 eq. base, 0.2 mM PIC-1, sera 1:100, secondary 1:4", "value": "4+"},
      {"measurement": "Gel card score", "setting": "Table 11B: 2 mM GSH, 2 eq. base, 0.2 mM PIC-1, sera 1:100, secondary 1:4", "value": "3+"},
      {"measurement": "Gel card score", "setting": "Table 11B: 2 mM GSH, no added base, 0.2 mM PIC-1, sera 1:100, secondary 1:4", "value": "3+"},
      {"measurement": "Gel card score", "setting": "Table 11B: 5 mM GSH, 1 eq. base, 0.2 mM PIC-1, sera 1:100, secondary 1:4", "value": "3+"},
      {"measurement": "Gel card score", "setting": "Table 11B: 5 mM GSH, 2 eq. base, 0.2 mM PIC-1, sera 1:100, secondary 1:4", "value": "2+"},
      {"measurement": "Gel card score", "setting": "Table 11B: 5 mM GSH, no added base, 0.2 mM PIC-1, sera 1:100, secondary 1:4", "value": "3+/MX*"},
      {"measurement": "Gel card score", "setting": "Table 11B: 10 mM GSH, 1 eq. base, 0.2 mM PIC-1, sera 1:100, secondary 1:4", "value": "2+"},
      {"measurement": "Gel card score", "setting": "Table 11B: 10 mM GSH, 2 eq. base, 0.2 mM PIC-1, sera 1:100, secondary 1:4", "value": "1+"},
      {"measurement": "Gel card score", "setting": "Table 11B: 10 mM GSH, no added base, 0.2 mM PIC-1, sera 1:100, secondary 1:4", "value": "3+/MX*"},
      {"measurement": "Gel card score", "setting": "Table 11B: 20 mM GSH, 1 eq. base, 0.2 mM PIC-1, sera 1:100, secondary 1:4", "value": "1+"},
      {"measurement": "Gel card score", "setting": "Table 11B: 20 mM GSH, 2 eq. base, 0.2 mM PIC-1, sera 1:100, secondary 1:4", "value": 0},
      {"measurement": "Gel card score", "setting": "Table 11B: 20 mM GSH, no added base, 0.2 mM PIC-1, sera 1:100, secondary 1:4", "value": "3+"},
      {"measurement": "Gel card score", "setting": "Table 12: 2 mM acidic GSH, 0.2 mM PIC-1, sera 1:4, no secondary Ab", "value": "3+"},
      {"measurement": "Gel card score", "setting": "Table 12: 2 mM acidic GSH, 0.2 mM PIC-1, sera 1:4, secondary Ab 1:4", "value": "4+"},
      {"measurement": "Gel card score", "setting": "Table 12: 2 mM acidic GSH, 0.2 mM PIC-1, sera 1:100, no secondary Ab", "value": 0},
      {"measurement": "Gel card score", "setting": "Table 12: 2 mM acidic GSH, 0.2 mM PIC-1, sera 1:100, secondary Ab 1:4", "value": 4},
      {"measurement": "Gel card score", "setting": "Table 12: 5 mM Cys 1eq, 0.2 mM PIC-1, sera 1:4, no secondary Ab", "value": "1+"},
      {"measurement": "Gel card score", "setting": "Table 12: 5 mM Cys 1eq, 0.2 mM PIC-1, sera 1:4, secondary Ab 1:4", "value": "4+"},
      {"measurement": "Gel card score", "setting": "Table 12: 5 mM Cys 1eq, 0.2 mM PIC-1, sera 1:100, no secondary Ab", "value": 0},
      {"measurement": "Gel card score", "setting": "Table 12: 5 mM Cys 1eq, 0.2 mM PIC-1, sera 1:100, secondary Ab 1:4", "value": "1*"},
      {"measurement": "Gel card score", "setting": "Table 12: 10 mM Cys 1eq, 0.2 mM PIC-1, sera 1:4, no secondary Ab", "value": 0},
      {"measurement": "Gel card score", "setting": "Table 12: 10 mM Cys 1eq, 0.2 mM PIC-1, sera 1:4, secondary Ab 1:4", "value": "3+"},
      {"measurement": "Gel card score", "setting": "Table 12: 10 mM Cys 1eq, 0.2 mM PIC-1, sera 1:100, no secondary Ab", "value": 0},
      {"measurement": "Gel card score", "setting": "Table 12: 10 mM Cys 1eq, 0.2 mM PIC-1, sera 1:100, secondary Ab 1:4", "value": 0},
      {"measurement": "Gel card score", "setting": "Table 12: 15 mM Cys 1eq, 0.2 mM PIC-1, sera 1:4, no secondary Ab", "value": 0},
      {"measurement": "Gel card score", "setting": "Table 12: 15 mM Cys 1eq, 0.2 mM PIC-1, sera 1:4, secondary Ab 1:4", "value": "1*"},
      {"measurement": "Gel card score", "setting": "Table 12: 15 mM Cys 1eq, 0.2 mM PIC-1, sera 1:100, no secondary Ab", "value": 0},
      {"measurement": "Gel card score", "setting": "Table 12: 15 mM Cys 1eq, 0.2 mM PIC-1, sera 1:100, secondary Ab 1:4", "value": 0},
      {"measurement": "Gel card score", "setting": "Table 12: 20 mM Cys 1eq, 0.2 mM PIC-1, sera 1:4, no secondary Ab", "value": 0},
      {"measurement": "Gel card score", "setting": "Table 12: 20 mM Cys 1eq, 0.2 mM PIC-1, sera 1:4, secondary Ab 1:4", "value": 0},
      {"measurement": "Gel card score", "setting": "Table 12: 20 mM Cys 1eq, 0.2 mM PIC-1, sera 1:100, no secondary Ab", "value": 0},
      {"measurement": "Gel card score", "setting": "Table 12: 20 mM Cys 1eq, 0.2 mM PIC-1, sera 1:100, secondary Ab 1:4", "value": 0},
      {"measurement": "Gel card score", "setting": "Table 12: 20 mM GSH 2eq, 0.2 mM PIC-1, sera 1:4, no secondary Ab", "value": 0},
      {"measurement": "Gel card score", "setting": "Table 12: 20 mM GSH 2eq, 0.2 mM PIC-1, sera 1:4, secondary Ab 1:4", "value": "3+"},
      {"measurement": "Gel card score", "setting": "Table 12: 20 mM GSH 2eq, 0.2 mM PIC-1, sera 1:100, no secondary Ab", "value": 0},
      {"measurement": "Gel card score", "setting": "Table 12: 20 mM GSH 2eq, 0.2 mM PIC-1, sera 1:100, secondary Ab 1:4", "value": 0},
      {"measurement": "Gel card score", "setting": "Table 12: […] Cys 1eq, 0.2 mM PIC-1, sera 1:4, no secondary Ab", "value": "2+"},
      {"measurement": "Gel card score", "setting": "Table 12: […] Cys 1eq, 0.2 mM PIC-1, sera 1:4, secondary Ab 1:4", "value": "4+"},
      {"measurement": "Gel card score", "setting": "Table 12: […] Cys 1eq, 0.2 mM PIC-1, sera 1:100, no secondary Ab", "value": 0},
      {"measurement": "Gel card score", "setting": "Table 12: […] Cys 1eq, 0.2 mM PIC-1, sera 1:100, secondary Ab 1:4", "value": 3},
      {"measurement": "Gel card score", "setting": "Table 13: 0.2 mM PIC-1 no quencher, blood sample 1, sera 1:4", "value": "4+"},
      {"measurement": "Gel card score", "setting": "Table 13: 0.2 mM PIC-1 no quencher, blood sample 1, sera 1:100", "value": "4+"},
      {"measurement": "Gel card score", "setting": "Table 13: 0.2 mM PIC-1 no quencher, blood sample 2, sera 1:4", "value": "4+"},
      {"measurement": "Gel card score", "setting": "Table 13: 0.2 mM PIC-1 no quencher, blood sample 2, sera 1:100", "value": "4+"},
      {"measurement": "Gel card score", "setting": "Table 13: 2 mM acidic GSH, 0.2 mM PIC-1, blood sample 1, sera 1:4", "value": "4+"},
      {"measurement": "Gel card score", "setting": "Table 13: 2 mM acidic GSH, 0.2 mM PIC-1, blood sample 1, sera 1:100", "value": "4+"},
      {"measurement": "Gel card score", "setting": "Table 13: 2 mM acidic GSH, 0.2 mM PIC-1, blood sample 2, sera 1:4", "value": "4+"},
      {"measurement": "Gel card score", "setting": "Table 13: 2 mM acidic GSH, 0.2 mM PIC-1, blood sample 2, sera 1:100", "value": "4+"},
      {"measurement": "Gel card score", "setting": "Table 13: 5 mM GSH 2eq/15 mM Cys 1eq, 0.2 mM PIC-1, blood sample 1, sera 1:4", "value": 2}
    ]}
  ]
}
